In article PMC11579512, “Deoxybouvardin-glucoside induces apoptosis in non-small cell lung cancer cells by targeting EGFR/MET and AKT signaling pathway” (EXCLI Journal, 2024):

Experiments:
Assay type in all cases: cell-based, human
[1] = tested on: HCC827 cells; assay: Soft agar anchorage-independent growth, HCC827; settings: 2 weeks
Method: The anchorage-independent cell growth assay was performed in 6-well plates with dual agar layers containing 0.6 % agar (lower layer) and 0.3 % agar (upper layer) supplemented with BME, 2 mM L-glutamine, 5 μg/ml gentamicin, and 10 % FBS. After 2 weeks of incubation, the number of colonies was assessed using a microscope (Leica, Wetzlar, Germany), and the mean colony area was analyzed using i-Solution ^TM software (Vancouver, BC, Canada).

[2] = tested on: HCC827GR cells; assay: Cell cycle distribution (Muse, PI), HCC827GR; settings: 48 h
Method: (§1) HaCaT cells were grown in DMEM, whereas HCC827 and HCC827GR cells were grown in RPMI 1640. All culture media were supplemented with FBS (10 %) and P/S (1 %), and the cells were grown at 37 °C in 5 % CO2.
Cell cycle distribution analysis was performed using a Muse™ Cell Cycle Kit (MCH100106, Merck Millipore, Billerica, MA) based on propidium iodide (PI) staining. The cells were collected, fixed in 70 % ethanol overnight at -20 °C, and then stained with a Muse™ Cell Cycle Reagent at RT for 30 min in the dark. The cell cycle distribution was measured using a Muse™ Cell Analyzer (Merck Millipore).

[3] = tested on: PARP; assay: Immunoblot PARP in HCC827 and HCC827GR cells; settings: for PARP protein Ratio: DBG 0 nM = 1.00
Method: as §1
Cells were lysed in RIPA buffer, and protein concentration was determined using a Bio-Rad DC Protein Assay kit (Bio-Rad, Hercules, CA, USA). Protein samples from the cell lysates were resolved by sodium dodecyl sulfate-polyacrylamide gel electrophoresis and then transferred onto polyvinylidene fluoride membranes. The membranes were blocked with 3 % or 5 % skim milk and then incubated at 4 °C overnight with the indicated primary antibodies, followed by the corresponding horseradish peroxidase-conjugated secondary antibodies at RT for 2 h. Protein bands were visualized using western blotting luminol reagent solution and ImageQuant LAS 500 (GE Healthcare, Uppsala, Sweden). The density of the bands was quantified using ImageJ software (NIH, Bethesda, MD, USA).

[4] = tested on: HCC827GR cells; assay: Annexin V/7-AAD apoptosis, HCC827GR; parameters: Early apoptosis / Total apopt / Dead / Live: unit not given here; settings: for apoptotic cells (annexin V+): 48 h, background 0.92 %; for Late apoptosis/Dead / Early apoptosis / Total apopt / Dead / Live: HCC827GR
Method: as §1
Apoptosis was measured using a Muse™ Annexin V & Dead Cell Kit (MCH100105, Merck Millipore). The fluorescent signal was analyzed with a Muse™ Cell Analyzer.

## COc1ccc(C[C@H]2C(=O)N[C@@H](C)C(=O)N(C)[C@H]3Cc4ccc(cc4)Oc4cc(ccc4O[C@@H]4O[C@H](CO)[C@@H](O)[C@H](O)[C@H]4O)C[C@@H](C(=O)N[C@H](C)C(=O)N[C@@H](C)C(=O)N2C)N(C)C3=O)cc1 [DBG, deoxybouvardin glucoside]
[1]; DBG 3 nM
  colony number, Control %: 58.65%
  colony size, Control %: 78.77%
[1]; DBG 6 nM
  colony number, Control %: 34.62%
  colony size, Control %: 57.75%
[1]; DBG 12 nM
  colony number, Control %: 0.00%
  colony size, Control %: 0.00%
[2]; DBG 3 nM, mean of 3 samples
  G0/G1 distribution: 53.10
  G2/M distribution: 37.67
  S distribution: 9.23
[2]; DBG 3 nM, sample 1
  G0/G1 distribution: 51.80
  G2/M distribution: 39.10
  S distribution: 9.10
[2]; DBG 3 nM, sample 2
  G0/G1 distribution: 53.80
  G2/M distribution: 36.60
  S distribution: 9.60
[2]; DBG 3 nM, sample 3
  G0/G1 distribution: 53.70
  G2/M distribution: 37.30
  S distribution: 9.00
[2]; DBG 6 nM, mean of 3 samples
  G0/G1 distribution: 54.77
  G2/M distribution: 36.33
  S distribution: 8.90
[2]; DBG 6 nM, sample 1
  G0/G1 distribution: 54.30
  G2/M distribution: 36.50
  S distribution: 9.20
[2]; DBG 6 nM, sample 2
  G0/G1 distribution: 53.10
  G2/M distribution: 37.80
  S distribution: 9.10
[2]; DBG 6 nM, sample 3
  G0/G1 distribution: 56.90
  G2/M distribution: 34.70
  S distribution: 8.40
[2]; DBG 12 nM, mean of 3 samples
  G0/G1 distribution: 56.93
  G2/M distribution: 34.27
  S distribution: 8.77
[2]; DBG 12 nM, sample 1
  G0/G1 distribution: 57.50
  G2/M distribution: 33.40
  S distribution: 9.00
[2]; DBG 12 nM, sample 2
  G0/G1 distribution: 56.20
  G2/M distribution: 35.10
  S distribution: 8.70
[2]; DBG 12 nM, sample 3
  G0/G1 distribution: 57.10
  G2/M distribution: 34.30
  S distribution: 8.60
[2]; concentration not given
  increase in proportion of cells at G1 phase: 2.36%
[3]; HCC827, DBG 3 nM, DBG 0 nM 0.88
  PARP protein/actin: 0.17
[3]; HCC827, DBG 3 nM
  PARP protein Ratio: 0.20
[3]; HCC827, DBG 6 nM, DBG 0 nM 0.88
  PARP protein/actin: 0.14
[3]; HCC827, DBG 6 nM
  PARP protein Ratio: 0.16
[3]; HCC827, DBG 12 nM, DBG 0 nM 0.88
  PARP protein/actin: 0.15
[3]; HCC827, DBG 12 nM
  PARP protein Ratio: 0.17
[3]; HCC827GR, DBG 3 nM, DBG 0 nM 0.78
  PARP protein/actin: 0.46
[3]; HCC827GR, DBG 3 nM
  PARP protein Ratio: 0.59
[3]; HCC827GR, DBG 6 nM, DBG 0 nM 0.78
  PARP protein/actin: 0.23
[3]; HCC827GR, DBG 6 nM
  PARP protein Ratio: 0.29
[3]; HCC827GR, DBG 12 nM, DBG 0 nM 0.78
  PARP protein/actin: 0.12
[3]; HCC827GR, DBG 12 nM
  PARP protein Ratio: 0.16
[3]; HCC827 and HCC827GR, DBG
  level of whole PARP: decreased
[4]; DBG 3 nM
  apoptotic cells (annexin V+): 11.08%
[4]; DBG 6 nM
  apoptotic cells (annexin V+): 25.58%
[4]; DBG 12 nM
  apoptotic cells (annexin V+): 42.32%
[4]; DBG 3 nM, mean of 3 samples, untreated 0.23
  Late apoptosis/Dead: 0.23
[4]; DBG 3 nM, mean of 3 samples, untreated 0.68
  Early apoptosis: 10.85
[4]; DBG 3 nM, mean of 3 samples, untreated 0.92
  Total apopt: 11.08
[4]; DBG 3 nM, mean of 3 samples, untreated 5.53
  Dead: 0.05
[4]; DBG 3 nM, mean of 3 samples, untreated 93.55
  Live: 88.87
[4]; DBG 3 nM, replicate 1
  Dead: 0.05
  Early apoptosis: 9.50
  Late apoptosis/Dead: 0.15
  Live: 90.30
  Total apopt: 9.65
[4]; DBG 3 nM, replicate 2
  Dead: 0.05
  Early apoptosis: 10.80
  Late apoptosis/Dead: 0.25
  Live: 88.90
  Total apopt: 11.05
[4]; DBG 3 nM, replicate 3
  Dead: 0.05
  Early apoptosis: 12.25
  Late apoptosis/Dead: 0.30
  Live: 87.40
  Total apopt: 12.55
[4]; DBG 6 nM, mean of 3 samples, untreated 0.23
  Late apoptosis/Dead: 0.50
[4]; DBG 6 nM, mean of 3 samples, untreated 0.68
  Early apoptosis: 25.08
[4]; DBG 6 nM, mean of 3 samples, untreated 0.92
  Total apopt: 25.58
[4]; DBG 6 nM, mean of 3 samples, untreated 5.53
  Dead: 0.10
[4]; DBG 6 nM, mean of 3 samples, untreated 93.55
  Live: 74.32
[4]; DBG 6 nM, replicate 1
  Dead: 0.00
  Early apoptosis: 24.55
  Late apoptosis/Dead: 0.55
  Live: 74.90
  Total apopt: 25.10
[4]; DBG 6 nM, replicate 2
  Dead: 0.15
  Early apoptosis: 25.60
  Late apoptosis/Dead: 0.40
  Live: 73.85
  Total apopt: 26.00
[4]; DBG 6 nM, replicate 3
  Dead: 0.15
  Early apoptosis: 25.10
  Late apoptosis/Dead: 0.55
  Live: 74.20
  Total apopt: 25.65
[4]; DBG 12 nM, mean of 3 samples, untreated 0.23
  Late apoptosis/Dead: 10.45
[4]; DBG 12 nM, mean of 3 samples, untreated 0.68
  Early apoptosis: 31.87
[4]; DBG 12 nM, mean of 3 samples, untreated 0.92
  Total apopt: 42.32
[4]; DBG 12 nM, mean of 3 samples, untreated 5.53
  Dead: 0.13
[4]; DBG 12 nM, mean of 3 samples, untreated 93.55
  Live: 57.55
[4]; DBG 12 nM, replicate 1
  Dead: 0.15
  Early apoptosis: 31.85
  Late apoptosis/Dead: 10.85
  Live: 57.15
  Total apopt: 42.70
[4]; DBG 12 nM, replicate 2
  Dead: 0.15
  Early apoptosis: 31.65
  Late apoptosis/Dead: 10.50
  Live: 57.70
  Total apopt: 42.15
[4]; DBG 12 nM, replicate 3
  Dead: 0.10
  Early apoptosis: 32.10
  Late apoptosis/Dead: 10.00
  Live: 57.80
  Total apopt: 42.10
